Experimental data from the NIST ThermoML archive (doi:10.1016/j.jct.2017.07.008).
Values joined by “and” are separate entries in the source; they are usually repeats but may differ in a detail not shown here. Equal values may be shown once. ± gives the expanded uncertainty stated by the source.

Settings: for surface tension liquid-gas: Drop volume; for viscosity / speed of sound / mass density: Liquid; for viscosity: Capillary tube (Ostwald / Ubbelohde) method; for speed of sound: Frequency=3 MHz, Single path-length method; for mass density: Vibrating tube method

O=Cc1cccs1 [2-thiophenealdehyde]
Settings | surface tension liquid-gas [mN/m]
283.15 K | 47.82 ± 0.34
285.65 K | 47.52 ± 0.33
288.15 K | 47.22 ± 0.33
290.65 K | 46.92 ± 0.33
293.15 K | 46.6 ± 0.33
295.65 K | 46.27 ± 0.33
298.15 K | 45.99 ± 0.33
300.65 K | 45.68 ± 0.33
303.15 K | 45.4 ± 0.33
305.65 K | 45.08 ± 0.33
308.15 K | 44.75 ± 0.32
310.65 K | 44.48 ± 0.32
313.15 K | 44.17 ± 0.32

Settings | mass density | speed of sound [m/s] | viscosity [mPa·s]
283.15 K, 100 kPa | 1232.44 ± 0.58 kg/m3 and 1232.47 ± 0.58 kg/m3 | 1512.8 ± 0.95 | 2.796 ± 0.033
283.15 K, 2000 kPa | 1233.56 ± 0.58 kg/m3 | – | –
283.15 K, 5000 kPa | 1235.26 ± 0.6 kg/m3 | – | –
283.15 K, 7000 kPa | 1236.39 ± 0.61 kg/m3 | – | –
283.15 K, 10000 kPa | 1238.06 ± 0.62 kg/m3 | – | –
283.15 K, 15000 kPa | 1240.76 ± 0.65 kg/m3 | – | –
283.15 K, 20000 kPa | 1243.38 ± 0.68 kg/m3 | – | –
283.15 K, 25000 kPa | 1245.94 ± 0.72 kg/m3 | – | –
283.15 K, 30000 kPa | 1248.47 ± 0.75 kg/m3 | – | –
283.15 K, 35000 kPa | 1250.93 ± 0.79 kg/m3 | – | –
283.15 K, 40000 kPa | 1253.33 ± 0.83 kg/m3 | – | –
283.15 K, 45000 kPa | 1255.69 ± 0.87 kg/m3 | – | –
283.15 K, 50000 kPa | 1258.02 ± 0.91 kg/m3 | – | –
283.15 K, 55000 kPa | 1260.26 ± 0.95 kg/m3 | – | –
283.15 K, 60000 kPa | 1262.44 ± 1 kg/m3 | – | –
283.15 K, 65000 kPa | 1264.58 ± 1 kg/m3 | – | –
285.65 K, 100 kPa | 1229.92 ± 0.58 kg/m3 | 1504.3 ± 0.95 | 2.661 ± 0.032
288.15 K, 100 kPa | 1227.39 ± 0.57 kg/m3 | 1495.9 ± 0.95 | 2.513 ± 0.03
288.15 K, 2000 kPa | 1228.51 ± 0.58 kg/m3 | – | –
288.15 K, 5000 kPa | 1230.24 ± 0.6 kg/m3 | – | –
288.15 K, 7000 kPa | 1231.38 ± 0.61 kg/m3 | – | –
288.15 K, 10000 kPa | 1233.07 ± 0.62 kg/m3 | – | –
288.15 K, 15000 kPa | 1235.82 ± 0.65 kg/m3 | – | –
288.15 K, 20000 kPa | 1238.51 ± 0.68 kg/m3 | – | –
288.15 K, 25000 kPa | 1241.13 ± 0.71 kg/m3 | – | –
288.15 K, 30000 kPa | 1243.69 ± 0.74 kg/m3 | – | –
288.15 K, 35000 kPa | 1246.2 ± 0.78 kg/m3 | – | –
288.15 K, 40000 kPa | 1248.64 ± 0.82 kg/m3 | – | –
288.15 K, 45000 kPa | 1251.04 ± 0.86 kg/m3 | – | –
288.15 K, 50000 kPa | 1253.38 ± 0.9 kg/m3 | – | –
288.15 K, 55000 kPa | 1255.68 ± 0.94 kg/m3 | – | –
288.15 K, 60000 kPa | 1257.93 ± 0.99 kg/m3 | – | –
288.15 K, 65000 kPa | 1260.14 ± 1 kg/m3 | – | –
290.65 K, 100 kPa | 1224.88 ± 0.57 kg/m3 | 1487.4 ± 0.95 | 2.386 ± 0.029
293.15 K, 100 kPa | 1222.35 ± 0.57 kg/m3 and 1222.36 ± 0.57 kg/m3 | 1479.1 ± 0.95 | 2.267 ± 0.027
293.15 K, 2000 kPa | 1223.5 ± 0.58 kg/m3 | – | –
293.15 K, 5000 kPa | 1225.27 ± 0.59 kg/m3 | – | –
293.15 K, 7000 kPa | 1226.44 ± 0.6 kg/m3 | – | –
293.15 K, 10000 kPa | 1228.16 ± 0.62 kg/m3 | – | –
293.15 K, 15000 kPa | 1230.98 ± 0.64 kg/m3 | – | –
293.15 K, 20000 kPa | 1233.73 ± 0.67 kg/m3 | – | –
293.15 K, 25000 kPa | 1236.41 ± 0.7 kg/m3 | – | –
293.15 K, 30000 kPa | 1239.02 ± 0.74 kg/m3 | – | –
293.15 K, 35000 kPa | 1241.57 ± 0.77 kg/m3 | – | –
293.15 K, 40000 kPa | 1244.07 ± 0.81 kg/m3 | – | –
293.15 K, 45000 kPa | 1246.51 ± 0.85 kg/m3 | – | –
293.15 K, 50000 kPa | 1248.9 ± 0.89 kg/m3 | – | –
293.15 K, 55000 kPa | 1251.24 ± 0.93 kg/m3 | – | –
293.15 K, 60000 kPa | 1253.53 ± 0.97 kg/m3 | – | –
293.15 K, 65000 kPa | 1255.77 ± 1 kg/m3 | – | –
295.65 K, 100 kPa | 1219.84 ± 0.57 kg/m3 | 1470.8 ± 0.95 | 2.162 ± 0.026
298.15 K, 100 kPa | 1217.32 ± 0.57 kg/m3 | 1462.4 ± 0.95 | 2.053 ± 0.025
298.15 K, 2000 kPa | 1218.49 ± 0.58 kg/m3 | – | –
298.15 K, 5000 kPa | 1220.31 ± 0.59 kg/m3 | – | –
298.15 K, 7000 kPa | 1221.5 ± 0.6 kg/m3 | – | –
298.15 K, 10000 kPa | 1223.27 ± 0.62 kg/m3 | – | –
298.15 K, 15000 kPa | 1226.15 ± 0.64 kg/m3 | – | –
298.15 K, 20000 kPa | 1228.95 ± 0.67 kg/m3 | – | –
298.15 K, 25000 kPa | 1231.69 ± 0.7 kg/m3 | – | –
298.15 K, 30000 kPa | 1234.36 ± 0.73 kg/m3 | – | –
298.15 K, 35000 kPa | 1236.96 ± 0.77 kg/m3 | – | –
298.15 K, 40000 kPa | 1239.51 ± 0.8 kg/m3 | – | –
298.15 K, 45000 kPa | 1242 ± 0.84 kg/m3 | – | –
298.15 K, 50000 kPa | 1244.43 ± 0.88 kg/m3 | – | –
298.15 K, 55000 kPa | 1246.81 ± 0.92 kg/m3 | – | –
298.15 K, 60000 kPa | 1249.14 ± 0.96 kg/m3 | – | –
298.15 K, 65000 kPa | 1251.43 ± 1 kg/m3 | – | –
300.65 K, 100 kPa | 1214.8 ± 0.57 kg/m3 | 1454 ± 0.95 | 1.96 ± 0.024
303.15 K, 100 kPa | 1212.28 ± 0.57 kg/m3 and 1212.29 ± 0.57 kg/m3 | 1445.7 ± 0.95 | 1.875 ± 0.023
303.15 K, 2000 kPa | 1213.48 ± 0.58 kg/m3 | – | –
303.15 K, 5000 kPa | 1215.34 ± 0.59 kg/m3 | – | –
303.15 K, 7000 kPa | 1216.56 ± 0.6 kg/m3 | – | –
303.15 K, 10000 kPa | 1218.37 ± 0.61 kg/m3 | – | –
303.15 K, 15000 kPa | 1221.32 ± 0.64 kg/m3 | – | –
303.15 K, 20000 kPa | 1224.19 ± 0.67 kg/m3 | – | –
303.15 K, 25000 kPa | 1226.98 ± 0.69 kg/m3 | – | –
303.15 K, 30000 kPa | 1229.71 ± 0.73 kg/m3 | – | –
303.15 K, 35000 kPa | 1232.36 ± 0.76 kg/m3 | – | –
303.15 K, 40000 kPa | 1234.96 ± 0.8 kg/m3 | – | –
303.15 K, 45000 kPa | 1237.49 ± 0.83 kg/m3 | – | –
303.15 K, 50000 kPa | 1239.97 ± 0.87 kg/m3 | – | –
303.15 K, 55000 kPa | 1242.4 ± 0.91 kg/m3 | – | –
303.15 K, 60000 kPa | 1244.77 ± 0.95 kg/m3 | – | –
303.15 K, 65000 kPa | 1247.09 ± 1 kg/m3 | – | –
305.65 K, 100 kPa | 1209.76 ± 0.57 kg/m3 | 1437.3 ± 0.95 | 1.797 ± 0.022
308.15 K, 100 kPa | 1207.25 ± 0.57 kg/m3 | 1429 ± 0.95 | 1.728 ± 0.021
308.15 K, 2000 kPa | 1208.47 ± 0.58 kg/m3 | – | –
308.15 K, 5000 kPa | 1210.38 ± 0.59 kg/m3 | – | –
308.15 K, 7000 kPa | 1211.63 ± 0.6 kg/m3 | – | –
308.15 K, 10000 kPa | 1213.48 ± 0.61 kg/m3 | – | –
308.15 K, 15000 kPa | 1216.49 ± 0.63 kg/m3 | – | –
308.15 K, 20000 kPa | 1219.43 ± 0.66 kg/m3 | – | –
308.15 K, 25000 kPa | 1222.28 ± 0.69 kg/m3 | – | –
308.15 K, 30000 kPa | 1225.06 ± 0.72 kg/m3 | – | –
308.15 K, 35000 kPa | 1227.77 ± 0.75 kg/m3 | – | –
308.15 K, 40000 kPa | 1230.42 ± 0.79 kg/m3 | – | –
308.15 K, 45000 kPa | 1233 ± 0.83 kg/m3 | – | –
308.15 K, 50000 kPa | 1235.53 ± 0.86 kg/m3 | – | –
308.15 K, 55000 kPa | 1238 ± 0.9 kg/m3 | – | –
308.15 K, 60000 kPa | 1240.41 ± 0.94 kg/m3 | – | –
308.15 K, 65000 kPa | 1242.78 ± 0.99 kg/m3 | – | –
310.65 K, 100 kPa | 1204.73 ± 0.57 kg/m3 | 1420.7 ± 0.95 | 1.654 ± 0.02
313.15 K, 100 kPa | 1202.21 ± 0.57 kg/m3 | 1412.4 ± 0.95 | 1.59 ± 0.019
313.15 K, 2000 kPa | 1203.46 ± 0.57 kg/m3 | – | –
313.15 K, 5000 kPa | 1205.41 ± 0.59 kg/m3 | – | –
313.15 K, 7000 kPa | 1206.7 ± 0.59 kg/m3 | – | –
313.15 K, 10000 kPa | 1208.59 ± 0.61 kg/m3 | – | –
313.15 K, 15000 kPa | 1211.67 ± 0.63 kg/m3 | – | –
313.15 K, 20000 kPa | 1214.67 ± 0.66 kg/m3 | – | –
313.15 K, 25000 kPa | 1217.59 ± 0.69 kg/m3 | – | –
313.15 K, 30000 kPa | 1220.43 ± 0.72 kg/m3 | – | –
313.15 K, 35000 kPa | 1223.19 ± 0.75 kg/m3 | – | –
313.15 K, 40000 kPa | 1225.89 ± 0.78 kg/m3 | – | –
313.15 K, 45000 kPa | 1228.52 ± 0.82 kg/m3 | – | –
313.15 K, 50000 kPa | 1231.1 ± 0.85 kg/m3 | – | –
313.15 K, 55000 kPa | 1233.61 ± 0.89 kg/m3 | – | –
313.15 K, 60000 kPa | 1236.07 ± 0.93 kg/m3 | – | –
